Read-outs that look alike come from different tables or passages of the source.
Experiment: in vitro
Assay type: in vitro ADME
Details: human
How it was run: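 Caco-2 monolayers cultured 19 days on inserts (TEER >600 […]); bidirectional A-to-B and B-to-A transport at 37° C over 90 min, samples quantified by LC/MS/MS. Papp, efflux ratio and recovery calculated; ER >2 flags potential efflux substrates.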

[1] = Caco-2 monolayer, apical to basolateral, 90-minute incubation, read-out: Papp, A-B
[2] = Caco-2 monolayer, basolateral to apical, 90-minute incubation, read-out: Papp, B-A
[3] = Caco-2 monolayer, ER>2 indicates potential efflux transporter substrate, read-out: ER (efflux ratio)

SMILES | Papp A→B at 90 min (Caco-2) | Papp B→A at 90 min (Caco-2) | efflux ratio at 90 min (Caco-2) | Papp A→B at 90 min [1] | Papp B→A at 90 min [2] | efflux ratio at 90 min [3]
CC(=O)O[C@H]1[C@@H](O)[C@](C#N)(c2ccc3c(N)ncnn23)O[C@@H]1COC(=O)[C@@H](N)C(C)C [Compound 37, ((2R,3S,4R,5R)-3-acetoxy-5-(4-aminopyrrolo[2,1-f][1,2,4]triazin-7-yl)-5-cyano-4-hydroxytetrahydrofuran-2-yl)methyl L-valinate] | 0.37 ×10⁻⁶ cm/s | 0.12 ×10⁻⁶ cm/s | 0.33 |  |  | 
CCCCC(=O)Nc1ncnn2c([C@]3(C#N)O[C@H](COC(=O)CC)[C@@H](O)[C@H]3O)ccc12 [Compound 282, ((2R,3S,4R,5R)-5-cyano-3,4-dihydroxy-5-(4-pentanamidopyrrolo[2,1-f][1,2,4]triazin-7-yl)tetrahydrofuran-2-yl)methyl propionate] |  |  |  | 0.72 ×10⁻⁶ cm/s | 4.1 ×10⁻⁶ cm/s | 5.6
CC(C)(C)[C@H](N)C(=O)O[C@H]1[C@@H](O)[C@](C#N)(c2ccc3c(N)ncnn23)O[C@@H]1COC(=O)CC1CCCCC1 [Compound 397, (2R,3S,4R,5R)-5-(4-aminopyrrolo[2,1-f][1,2,4]triazin-7-yl)-5-cyano-2-((2-cyclohexylacetoxy)methyl)-4-hydroxytetrahydrofuran-3-yl (S)-2-amino-3,3-dimethylbutanoate] | 2.8 ×10⁻⁶ cm/s | 7.3 ×10⁻⁶ cm/s | 2.6 |  |  | 
CC(C)(C)[C@H](N)C(=O)OC[C@H]1O[C@@](C#N)(c2ccc3c(N)ncnn23)[C@H](O)[C@@H]1OC(=O)CC1CCCCC1 [Compound 371, ((2R,3S,4R,5R)-5-(4-aminopyrrolo[2,1-f][1,2,4]triazin-7-yl)-5-cyano-3-(2-cyclohexylacetoxy)-4-hydroxytetrahydrofuran-2-yl)methyl (S)-2-amino-3,3-dimethylbutanoate] | 15 ×10⁻⁶ cm/s | 21 ×10⁻⁶ cm/s | 1.3 |  |  | 
N#C[C@@]1(c2ccc3c(N)ncnn23)O[C@H](COC(=O)CC2(c3ccccc3)CCOCC2)[C@@H](O)[C@H]1O [Compound 274, ((2R,3S,4R,5R)-5-(4-aminopyrrolo[2,1-f][1,2,4]triazin-7-yl)-5-cyano-3,4-dihydroxytetrahydrofuran-2-yl)methyl 2-(4-phenyltetrahydro-2H-pyran-4-yl)acetate] | 0.85 ×10⁻⁶ cm/s | 12 ×10⁻⁶ cm/s | 14 |  |  | 
CNc1nc(NC(=O)CC(C)C)nc2c1ncn2[C@@H]1O[C@H](COC(C)=O)[C@@H](OC(=O)CC(C)C)[C@@]1(C)F [Compound 332, (2R,3R,4R,5R)-2-(acetoxymethyl)-4-fluoro-4-methyl-5-(6-(methylamino)-2-(3-methylbutanamido)-9H-purin-9-yl)tetrahydrofuran-3-yl 3-methylbutanoate] | 11 ×10⁻⁶ cm/s | 2.6 ×10⁻⁶ cm/s | 0.22 |  |  | 
N#C[C@@]1(c2ccc3c(N)ncnn23)O[C@H](COC(=O)CC2CCC(C(F)(F)F)CC2)[C@@H](OC(=O)CC2CCC(C(F)(F)F)CC2)[C@H]1O (stereo partly drawn) [Compound 271, (2R,3S,4R,5R)-5-(4-aminopyrrolo[2,1-f][1,2,4]triazin-7-yl)-5-cyano-4-hydroxy-2-((2-(4-(trifluoromethyl)cyclohexyl)acetoxy)methyl)tetrahydrofuran-3-yl 2-(4-(trifluoromethyl)cyclohexyl)acetate] | 0.06 ×10⁻⁶ cm/s | 0.52 ×10⁻⁶ cm/s | 8.7 |  |  | 
CC(=O)O[C@H]1[C@@H](O)[C@](C#N)(c2ccc3c(N)ncnn23)O[C@@H]1COC(=O)CC1CCCCC1 [Compound 29, ((2R,3S,4R,5R)-3-acetoxy-5-(4-aminopyrrolo[2,1-f][1,2,4]triazin-7-yl)-5-cyano-4-hydroxytetrahydrofuran-2-yl)methyl 2-cyclohexylacetate] | 2 ×10⁻⁶ cm/s | 2.1 ×10⁻⁶ cm/s | 1.1 |  |  | 
CCCCCCCCCCCCCCCCCCOCCOP(=O)(O)OC[C@H]1O[C@@H](n2cnc3c(NC)nc(N)nc32)[C@](C)(F)[C@@H]1O [Compound 254, ((2R,3R,4R,5R)-5-(2-amino-6-(methylamino)-9H-purin-9-yl)-4-fluoro-3-hydroxy-4-methyltetrahydrofuran-2-yl)methyl (2-(octadecyloxy)ethyl) hydrogen phosphate] | 2.2 ×10⁻⁶ cm/s | 1.7 ×10⁻⁶ cm/s | 0.8 |  |  | 
CC(=O)OC[C@H]1O[C@@](C#N)(c2ccc3c(N)ncnn23)[C@H](O)[C@@H]1OCOC(=O)C(C)(C)C [Compound 56, {[(2R,3S,4R,5R)-2-[(acetyloxy)methyl]-5-{4-aminopyrrolo[2,1-f][1,2,4]triazin-7-yl}-5-cyano-4-hydroxyoxolan-3-yl]oxy}methyl 2,2-dimethylpropanoate] | 4.7 ×10⁻⁶ cm/s | 4 ×10⁻⁶ cm/s | 0.84 |  |  | 
CC(C)CC(=O)O[C@H]1[C@@H](O)[C@](C#N)(c2ccc3c(N)ncnn23)O[C@@H]1COC(=O)Cc1ccccc1 [Compound 41, (2R,3S,4R,5R)-5-(4-aminopyrrolo[2,1-f][1,2,4]triazin-7-yl)-5-cyano-4-hydroxy-2-((2-phenylacetoxy)methyl)tetrahydrofuran-3-yl 3-methylbutanoate] |  |  |  | 19 ×10⁻⁶ cm/s | 31 ×10⁻⁶ cm/s | 1.6
CC(C)CC(=O)OC[C@H]1O[C@@](C#N)(c2ccc3c(NC(=O)c4ccccc4)ncnn23)[C@H](O)[C@@H]1O [Compound 109] | 1.4 ×10⁻⁶ cm/s | 1.3 ×10⁻⁶ cm/s | 0.9 |  |  | 
CNc1nc(N)nc2c1ncn2[C@@H]1O[C@H](COC(=O)CC2CCCCC2)[C@@H](OC(=O)C(C)C)[C@@]1(C)F [Compound 223, (2R,3R,4R,5R)-5-[2-amino-6-(methylamino)purin-9-yl]-2-{[(2-cyclohexylacetyl)oxy]methyl}-4-fluoro-4-methyloxolan-3-yl 2-methylpropanoate] | 20 ×10⁻⁶ cm/s | 6.9 ×10⁻⁶ cm/s | 0.34 |  |  | 
CCC(=O)O[C@@H]1[C@@H](COC(=O)C(C)C)O[C@@H](n2cnc3c(NC)nc(N)nc32)[C@]1(C)F [Compound 235, ((2R,3R,4R,5R)-5-(2-amino-6-(methylamino)-9H-purin-9-yl)-4-fluoro-4-methyl-3-(propionyloxy)tetrahydrofuran-2-yl)methyl isobutyrate] | 11 ×10⁻⁶ cm/s | 4.5 ×10⁻⁶ cm/s | 0.4 |  |  | 
N#C[C@@]1(c2ccc3c(NC(=O)c4ccccc4)ncnn23)O[C@H](COC(=O)Cc2ccccc2)[C@@H](O)[C@H]1O [Compound 105, ((2R,3S,4R,5R)-5-(4-benzamidopyrrolo[2,1-f][1,2,4]triazin-7-yl)-5-cyano-3,4-dihydroxytetrahydrofuran-2-yl)methyl 2-phenylacetate] |  |  |  | 0.77 ×10⁻⁶ cm/s | 1.4 ×10⁻⁶ cm/s | 1.8
CCCCCOC(=O)Nc1ncnn2c([C@]3(C#N)O[C@H](COC(=O)C(C)C)[C@@H](O)[C@H]3O)ccc12 [Compound 92, ((2R,3S,4R,5R)-5-cyano-3,4-dihydroxy-5-(4-(((pentyloxy)carbonyl)amino)pyrrolo[2,1-f][1,2,4]triazin-7-yl)tetrahydrofuran-2-yl)methyl isobutyrate] | 2.7 ×10⁻⁶ cm/s | 4.6 ×10⁻⁶ cm/s | 1.7 |  |  | 
CC(C)CC(=O)OC[C@H]1O[C@@](C#N)(c2ccc3c(N)ncnn23)[C@H](O)[C@@H]1OC(=O)C(C)C [Compound 22, ((2R,3S,4R,5R)-5-(4-aminopyrrolo[2,1-f][1,2,4]triazin-7-yl)-5-cyano-4-hydroxy-3-(isobutyryloxy)tetrahydrofuran-2-yl)methyl 3-methylbutanoate] | 7 ×10⁻⁶ cm/s | 10 ×10⁻⁶ cm/s | 1.5 |  |  | 
CC(C)(C)C(=O)OCOC(=O)Nc1ncnn2c([C@]3(C#N)O[C@H](COC(=O)[C@@H](N)C(C)(C)C)[C@@H](O)[C@H]3O)ccc12 [Compound 395, ((2R,3S,4R,5R)-5-cyano-3,4-dihydroxy-5-(4-((((pivaloyloxy)methoxy)carbonyl)amino)pyrrolo[2,1-f][1,2,4]triazin-7-yl)tetrahydrofuran-2-yl)methyl (S)-2-amino-3,3-dimethylbutanoate] | 0.01 ×10⁻⁶ cm/s | 0.24 ×10⁻⁶ cm/s | 19.2 |  |  | 
CCC(=O)OC[C@H]1O[C@@](C#N)(c2ccc3c(N)ncnn23)[C@H](O)[C@@H]1O [Compound 15, ((2R,3S,4R,5R)-5-(4-aminopyrrolo[2,1-f][1,2,4]triazin-7-yl)-5-cyano-3,4-dihydroxytetrahydrofuran-2-yl)methyl propionate] |  |  |  | 2.9 ×10⁻⁶ cm/s | 7 ×10⁻⁶ cm/s | 3.4
CC(C)[C@H](N)C(=O)O[C@H]1[C@@H](O)[C@](C#N)(c2ccc3c(N)ncnn23)O[C@@H]1COC(=O)CC1CCCCC1 [Compound 27, (2R,3S,4R,5R)-5-{4-aminopyrrolo[2,1-f][1,2,4]triazin-7-yl}-5-cyano-2-{[(2-cyclohexylacetyl)oxy]methyl}-4-hydroxyoxolan-3-yl (2S)-2-amino-3-methylbutanoate] | 0.1 ×10⁻⁶ cm/s | 9.9 ×10⁻⁶ cm/s | 100 |  |  | 
N#C[C@@]1(c2ccc3c(N)ncnn23)O[C@H](COC(=O)CC2CCNCC2)[C@@H](O)[C@H]1O [Compound 267] | 0.42 ×10⁻⁶ cm/s | 0.27 ×10⁻⁶ cm/s | 0.65 |  |  | 
CCC(=O)OC[C@H]1O[C@@](C#N)(c2ccc3c(N)ncnn23)[C@H](O)[C@@H]1OC(=O)CC1CCCCC1 [Compound 66, [(2R,3S,4R,5R)-5-{4-aminopyrrolo[2,1-f][1,2,4]triazin-7-yl}-5-cyano-3-[(2-cyclohexylacetyl)oxy]-4-hydroxyoxolan-2-yl]methyl propanoate] | 2.7 ×10⁻⁶ cm/s | 0.36 ×10⁻⁶ cm/s | 0.13 |  |  | 

— patent publication US12102648B2, “Orally-bioavailable nucleoside analogs” (priority 2021, dated 2024)
